Structures can show the parent of a compound that is named as a salt. Where two headings read alike, the source gives them in different places.
Key:
Type in all cases: biochemical
recombinant PRL-1 = target: T1, recombinant PRL-1 (Homo sapiens, UniProt Q93096); assay: In vitro phosphatase assay (DiFMUP hydrolysis), PRL-1; note: test concentration or dose not given here
T1 construct: 6xHis (N, cleaved yes); made in house; host or cells: E. coli One Shot BL21 Star
T1 sequence (Q93096 1-173): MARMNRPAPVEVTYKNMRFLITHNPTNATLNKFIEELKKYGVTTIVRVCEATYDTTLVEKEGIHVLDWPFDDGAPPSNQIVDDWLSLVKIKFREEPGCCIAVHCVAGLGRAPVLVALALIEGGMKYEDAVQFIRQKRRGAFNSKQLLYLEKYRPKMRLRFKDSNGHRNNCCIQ

recombinant PRL-2 = target: T2, recombinant PRL-2 (Homo sapiens, UniProt Q12974); assay: In vitro phosphatase assay (DiFMUP hydrolysis), PRL-2;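 note: PRL-2 activity read as DiFMUP hydrolysis after 20 min at room temperature with drug, enzyme first pre-reduced at 4 °C for 20 min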
T2 construct: 6xHis (N, cleaved yes); made in house; host or cells: E. coli One Shot BL21 Star
T2 sequence (Q12974 1-167): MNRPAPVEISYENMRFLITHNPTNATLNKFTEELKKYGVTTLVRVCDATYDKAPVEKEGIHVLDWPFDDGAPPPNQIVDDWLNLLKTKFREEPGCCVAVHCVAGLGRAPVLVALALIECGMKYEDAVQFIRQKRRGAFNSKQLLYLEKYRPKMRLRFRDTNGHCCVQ
Protocol: Briefly, protein was diluted in reaction buffer and allowed to incubate at 4 °C for 20 min to allow for full reduction of the active site. DiFMUP, drug, and protein were added, and plates were incubated for 20 min at room temperature. Fluorescence intensities were measured on a Cytation 5 plate reader (Biotek) at an EX:360 nm and EM:460 nm. […] Inhibition selectivity for PRLs over a panel of other phosphatases was determined using PhosphataseProfiler (Eurofins, Cat # PP260).

recombinant PRL-3 = target: T3, recombinant PRL-3 (Homo sapiens, UniProt O75365); assay: In vitro phosphatase assay (DiFMUP hydrolysis), PRL-3; note: test concentration or dose not given here
T3 construct: 6xHis (N, cleaved yes); made in house; host or cells: E. coli One Shot BL21 Star
T3 sequence (O75365 whole entry): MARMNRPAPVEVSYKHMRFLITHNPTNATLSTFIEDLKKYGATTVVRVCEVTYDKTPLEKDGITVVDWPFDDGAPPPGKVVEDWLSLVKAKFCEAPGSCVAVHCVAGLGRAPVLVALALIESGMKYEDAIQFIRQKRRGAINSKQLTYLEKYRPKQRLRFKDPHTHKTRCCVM

[1] = FDA-approved drug screen, compared to DMSO

| Structure (SMILES) | % Phosphatase Activity (compared to DMSO) PRL-1 (recombinant PRL-1; [1]) [%] | % Phosphatase Activity (compared to DMSO) PRL-2 (recombinant PRL-2; [1]) [%] | % Phosphatase Activity (compared to DMSO) PRL-3 (recombinant PRL-3; [1]) [%] | % Phosphatase Activity (compared to DMSO) PRL-1 (recombinant PRL-1) [%] | % Phosphatase Activity (compared to DMSO) PRL-2 (recombinant PRL-2) [%] | % Phosphatase Activity (compared to DMSO) PRL-3 (recombinant PRL-3) [%] |
| --- | --- | --- | --- | --- | --- | --- |
| CN(C)[C@@H]1C(O)=C(C(N)=O)C(=O)[C@@]2(O)C(O)=C3C(=O)c4c(O)ccc(Cl)c4[C@@H](O)[C@H]3C[C@@H]12 [Demeclocycline HCl] | 90 | 86 | 67 |  |  |  |
| C[C@H](CCC(=O)O)[C@H]1CC[C@H]2[C@@H]3CC[C@@H]4C[C@H](O)CC[C@]4(C)[C@H]3C[C@H](O)[C@]12C [Deoxycholic acid] | 89 | 73 | 96 |  |  |  |
| CC(=O)OCC(=O)[C@H]1CC[C@H]2[C@@H]3CCC4=CC(=O)CC[C@]4(C)[C@H]3CC[C@]12C [Deoxycorticosterone acetate] | 84 | 83 | 74 |  |  |  |
| C#C[C@]1(O)CC[C@H]2[C@@H]3CCC4=CCCC[C@@H]4[C@H]3C(=C)C[C@@]21CC [Desogestrel] | 104 | 109 | 84 |  |  |  |
| CC1(C)O[C@@H]2C[C@H]3[C@@H]4CCC5=CC(=O)C=C[C@]5(C)[C@H]4[C@@H](O)C[C@]3(C)[C@]2(C(=O)CO)O1 [Desonide] | 98 | 97 | 84 |  |  |  |
| CN(C)CC(c1ccc(O)cc1)C1(O)CCCCC1 (stereo not drawn) [Desvenlafaxine Succinate] | 106 | 103 | 80 |  |  |  |
| CN(C)CC(c1ccc(O)cc1)C1(O)CCCCC1 (stereo not drawn) [Desvenlafaxine] | 95 | 105 | 70 |  |  |  |
| Cc1cccc(Cc2c[nH]cn2)c1C [Detomidine HCl] | 88 | 107 | 81 |  |  |  |
| C[C@@H]1C[C@H]2[C@@H]3CCC4=CC(=O)C=C[C@]4(C)[C@@]3(F)[C@@H](O)C[C@]2(C)[C@@]1(O)C(=O)CO [Dexamethasone (DHAP)] | 99 | 94 | 66 |  |  |  |
| CC(=O)OCC(=O)[C@@]1(O)[C@H](C)C[C@H]2[C@@H]3CCC4=CC(=O)C=C[C@]4(C)[C@@]3(F)[C@@H](O)C[C@@]21C [Dexamethasone Acetate] | 90 | 93 | 86 |  |  |  |
| Cc1c(OCC(F)(F)F)ccnc1C[S@@+]([O-])c1nc2ccccc2[nH]1 [Dexlansoprazole] | 95 | 100 | 93 |  |  |  |
| Cc1cccc([C@H](C)c2c[nH]cn2)c1C.Cl [Dexmedetomidine HCl (Precedex)] |  |  |  | 111 | 120 | 90 |
| Cc1cccc([C@H](C)c2cnc[nH]2)c1C [Dexmedetomidine] |  |  |  | 98 | 113 | 94 |
| C[C@@H](CN1CC(=O)NC(=O)C1)N1CC(=O)NC(=O)C1.Cl [Dexrazoxane HCl (ICRF-187, ADR-529)] | 97 | 92 | 79 |  |  |  |
| Br.COc1ccc2c(c1)[C@]13CCCC[C@@H]1[C@H](C2)N(C)CC3.O [Dextromethorphan (hydrobromide hydrate)] | 104 | 118 | 92 |  |  |  |
| OC[C@H]1OC(O)[C@H](O)[C@@H](O)[C@@H]1O (stereo partly drawn) [Dextrose] | 106 | 113 | 79 |  |  |  |
| CC(=O)Oc1cccc2c1C(=O)c1c(OC(C)=O)cc(C(=O)O)cc1C2=O [Diacerein] | 32 | 51 | 31 |  |  |  |
| CC1=NS(=O)(=O)c2cc(Cl)ccc2N1 [Diazoxide] | 99 | 94 | 89 |  |  |  |
| CCCCOc1cc(C(=O)NCCN(CC)CC)c2ccccc2n1 [Dibucaine HCl] | 110 | 108 | 101 |  |  |  |
| N#CC(c1ccc(Cl)cc1)c1c(Cl)cc(-n2ncc(=O)[nH]c2=O)cc1Cl (stereo not drawn) [Diclazuril] | 79 | 112 | 80 |  |  |  |
| O=C(O)Cc1ccccc1Nc1c(Cl)cccc1Cl [Diclofenac Diethylamine] | 119 | 140 | 97 |  |  |  |
| O=C([O-])Cc1ccccc1Nc1c(Cl)cccc1Cl.[K+] [Diclofenac Potassium] | 115 | 132 | 99 |  |  |  |
| O=C(O)Cc1ccccc1Nc1c(Cl)cccc1Cl [Diclofenac Sodium] | 100 | 115 | 92 |  |  |  |
| Cc1onc(-c2c(Cl)cccc2Cl)c1C(=O)N[C@@H]1C(=O)N2[C@@H]1SC(C)(C)[C@@H]2C(=O)O [Dicloxacillin Sodium] | 106 | 121 | 85 |  |  |  |
| O=c1[nH]cnc2c1ncn2[C@H]1CC[C@@H](CO)O1 [Didanosine] | 95 | 114 | 85 |  |  |  |
| C[C@]12CCC3=C4CCC(=O)C=C4CC[C@H]3[C@@H]1CC[C@@]2(O)CC#N [Dienogest] | 100 | 78 | 72 |  |  |  |
| CCN(CC)C(=O)N1CCN(C)CC1.O=C(O)CC(O)(CC(=O)O)C(=O)O [Diethylcarbamazine (citrate)] | 92 | 101 | 90 |  |  |  |
| CC/C(=C(/CC)c1ccc(O)cc1)c1ccc(O)cc1 [Diethylstilbestrol] | 86 | 97 | 92 |  |  |  |
| CN1CCN(c2cc3c(cc2F)c(=O)c(C(=O)O)cn3-c2ccc(F)cc2)CC1 [Difloxacin HCl] | 99 | 102 | 114 |  |  |  |
| O=C(O)c1cc(-c2ccc(F)cc2F)ccc1O [Diflunisal] | 91 | 87 | 85 |  |  |  |

— PMC8119466, “A screen of FDA-approved drugs identifies inhibitors of protein tyrosine phosphatase 4A3 (PTP4A3 or PRL-3)” (Scientific Reports, 2021)
